Assay results from ChEMBL document CHEMBL1151620, “Rollinone, a new cytotoxic acetogenin from Rollinia papilionella” (1984).

Assays:
P388 [1] = test: Cytotoxicity against mouse P388 cells; format: functional
P388 [2] = test: In vivo antitumor activity against mouse P388 lymphocytic leukemia in mouse at 1.4 mg/kg; format: functional

SMILES: CCCCCCCCCCC(O)C1CCC(C2CCC(C(O)C(=O)CCCCCCCCCCCC3CC(C)OC3=O)O2)O1 (configuration not stated) [ROLLINONE]
- ED50 (P388 [1]): <1 ×10⁻⁵ ug/ml
- T/C (P388 [2]): 147%
